Data published in PubChem BioAssay (NCI).
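Results reflect a 48-hour exposure of cells in 96-well plates to compound at five concentrations. Abbreviation: GI50, concentration required for 50% inhibition of growth. Definition used: TGI = concentration required for complete inhibition of growth.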

Key:
Assay in all cases: DTP human tumour cell line panel, 48 h
786-0 renal = test system: 786-0 renal
A498 renal = test system: A498 renal
A549 NSCLC = test system: A549 NSCLC
ACHN renal = test system: ACHN renal
BT-549 breast = test system: BT-549 breast
CAKI-1 renal = test system: CAKI-1 renal
CCRF-CEM leukemia = test system: CCRF-CEM leukemia
COLO 205 colon = test system: COLO 205 colon
DU-145 prostate = test system: DU-145 prostate
EKVX NSCLC = test system: EKVX NSCLC
HCC-2998 colon = test system: HCC-2998 colon
HCT-116 colon = test system: HCT-116 colon
HCT-15 colon = test system: HCT-15 colon
HL-60(TB) leukemia = test system: HL-60(TB) leukemia
HOP-62 NSCLC = test system: HOP-62 NSCLC
HOP-92 NSCLC = test system: HOP-92 NSCLC
HS 578T breast = test system: HS 578T breast
HT29 colon = test system: HT29 colon
IGROV1 ovarian = test system: IGROV1 ovarian
K-562 leukemia = test system: K-562 leukemia
KM12 colon = test system: KM12 colon
LOX IMVI melanoma = test system: LOX IMVI melanoma
M14 melanoma = test system: M14 melanoma
MALME-3M melanoma = test system: MALME-3M melanoma
MCF7 breast = test system: MCF7 breast
MDA-MB-231 breast = test system: MDA-MB-231 breast
MDA-MB-435 = test system: MDA-MB-435
MOLT-4 leukemia = test system: MOLT-4 leukemia
NCI-H226 lung = test system: NCI-H226 lung
NCI-H23 lung = test system: NCI-H23 lung
NCI-H460 lung = test system: NCI-H460 lung
NCI-H522 lung = test system: NCI-H522 lung
NCI/ADR-RES ovarian = test system: NCI/ADR-RES ovarian
OVCAR-3 ovarian = test system: OVCAR-3 ovarian
OVCAR-4 ovarian = test system: OVCAR-4 ovarian
OVCAR-5 ovarian = test system: OVCAR-5 ovarian
OVCAR-8 ovarian = test system: OVCAR-8 ovarian
PC-3 prostate = test system: PC-3 prostate
RPMI-8226 leukemia = test system: RPMI-8226 leukemia
RXF 393 renal = test system: RXF 393 renal
SF-268 CNS = test system: SF-268 CNS
SF-295 CNS = test system: SF-295 CNS
SF-539 CNS = test system: SF-539 CNS
SK-MEL-2 melanoma = test system: SK-MEL-2 melanoma
SK-MEL-28 melanoma = test system: SK-MEL-28 melanoma
SK-MEL-5 melanoma = test system: SK-MEL-5 melanoma
SK-OV-3 ovarian = test system: SK-OV-3 ovarian
SN12C renal = test system: SN12C renal
SNB-19 CNS = test system: SNB-19 CNS
SNB-75 CNS = test system: SNB-75 CNS
SW-620 colon = test system: SW-620 colon
T-47D breast = test system: T-47D breast
TK-10 renal = test system: TK-10 renal
U251 CNS = test system: U251 CNS
UACC-257 melanoma = test system: UACC-257 melanoma
UACC-62 melanoma = test system: UACC-62 melanoma
UO-31 renal = test system: UO-31 renal

## N#CC(C#N)=C/C=C(\Sc1ccc(F)c(Cl)c1)c1ccc(Cl)cc1
786-0 renal
  GI50: 0.95 µM
  TGI: 2.49 µM
A498 renal
  GI50: 16 µM
  TGI: 32.4 µM
A549 NSCLC
  GI50: 3.29 µM
  TGI: 12.7 µM
ACHN renal
  GI50: 0.795 µM
  TGI: 3.34 µM
BT-549 breast
  GI50: 3.09 µM
  TGI: 8.84 µM
CAKI-1 renal
  GI50: 1.77 µM
  TGI: 12.1 µM
CCRF-CEM leukemia
  GI50: 0.193 µM
  TGI: 0.539 µM
COLO 205 colon
  GI50: 2.58 µM
  TGI: > 21.3 µM
DU-145 prostate
  GI50: 1.12 µM
  TGI: 6.77 µM
EKVX NSCLC
  GI50: 14.5 µM
  TGI: 39.5 µM
HCC-2998 colon
  GI50: 5.71 µM
  TGI: 17.8 µM
HCT-116 colon
  GI50: 0.3 µM
  TGI: 0.799 µM
HCT-15 colon
  GI50: 0.601 µM
  TGI: 2.01 µM
HL-60(TB) leukemia
  GI50: 0.317 µM
  TGI: 4.48 µM
HOP-62 NSCLC
  GI50: 1.52 µM
  TGI: 5.78 µM
HOP-92 NSCLC
  GI50: 0.947 µM
  TGI: 6.91 µM
HS 578T breast
  GI50: 4.78 µM
  TGI: 43.5 µM
HT29 colon
  GI50: 0.545 µM
  TGI: 2.24 µM
IGROV1 ovarian
  GI50: 1.09 µM
  TGI: 4.29 µM
K-562 leukemia
  GI50: 0.396 µM
  TGI: 12.6 µM
KM12 colon
  GI50: 2.74 µM
  TGI: 13.1 µM
LOX IMVI melanoma
  GI50: 0.302 µM
  TGI: 1.12 µM
M14 melanoma
  GI50: 0.807 µM
  TGI: 2.53 µM
MALME-3M melanoma
  GI50: 3.26 µM
  TGI: 20.4 µM
MCF7 breast
  GI50: 1.25 µM
  TGI: 26.7 µM
MDA-MB-231 breast
  GI50: 0.671 µM
  TGI: 2.02 µM
MDA-MB-435
  GI50: 1.25 µM
  TGI: 4.29 µM
MOLT-4 leukemia
  GI50: 0.335 µM
  TGI: 2.74 µM
NCI-H226 lung
  GI50: 2.05 µM
  TGI: 6.25 µM
NCI-H23 lung
  GI50: 1.14 µM
  TGI: 5.64 µM
NCI-H460 lung
  GI50: 5.24 µM
  TGI: 22.7 µM
NCI-H522 lung
  GI50: 1.8 µM
  TGI: 7.71 µM
NCI/ADR-RES ovarian
  GI50: 1.11 µM
  TGI: 4.82 µM
OVCAR-3 ovarian
  GI50: 3.99 µM
  TGI: 16.3 µM
OVCAR-4 ovarian
  GI50: 0.918 µM
  TGI: 7.43 µM
OVCAR-5 ovarian
  GI50: 2.93 µM
  TGI: 24.6 µM
OVCAR-8 ovarian
  GI50: 0.862 µM
  TGI: 2.42 µM
PC-3 prostate
  GI50: 0.787 µM
  TGI: 7.1 µM
RPMI-8226 leukemia
  GI50: 0.271 µM
  TGI: 0.967 µM
RXF 393 renal
  GI50: 0.663 µM
  TGI: 2.12 µM
SF-268 CNS
  GI50: 2.52 µM
  TGI: 17.8 µM
SF-295 CNS
  GI50: 10.7 µM
  TGI: > 53.2 µM
SF-539 CNS
  GI50: 2.19 µM
  TGI: 6.58 µM
SK-MEL-2 melanoma
  GI50: 7.01 µM
  TGI: 23.9 µM
SK-MEL-28 melanoma
  TGI: 3.53 µM
SK-MEL-5 melanoma
  GI50: 7.22 µM
  TGI: 19.4 µM
SK-OV-3 ovarian
  GI50: 15.8 µM
  TGI: > 41.1 µM
SN12C renal
  GI50: 0.669 µM
  TGI: 1.93 µM
SNB-19 CNS
  GI50: 5.48 µM
  TGI: 28.2 µM
SNB-75 CNS
  GI50: 5.62 µM
  TGI: 16 µM
SW-620 colon
  GI50: 0.494 µM
  TGI: 5.74 µM
T-47D breast
  GI50: 11.6 µM
  TGI: 46.3 µM
TK-10 renal
  GI50: 1.62 µM
  TGI: 6.57 µM
U251 CNS
  GI50: 0.72 µM
  TGI: 2.61 µM
UACC-257 melanoma
  GI50: 6.68 µM
  TGI: 19.5 µM
UACC-62 melanoma
  GI50: 2.43 µM
  TGI: 11.5 µM
UO-31 renal
  GI50: 0.889 µM
  TGI: 2.86 µM
